Laboratory results published in patent US20210244713A1, “ANHYDROUS COMPOSITIONS OF mTOR INHIBITORS AND METHODS OF USE” (PALVELLA THERAPEUTICS, INC., priority 2018, published 2021).

What was measured:
[1] = Ex vivo skin permeation experiment; format: in vitro ADME, Human
Description: Human donor skin was placed between upper and lower compartments. The lower compartment was filled with receiver fluid. Various rapamycin compositions were applied on the surface of the skin facing the upper compartment (11 formulations (i.e., O3, NA21, NA22, NA21, NA17, TD201, NA19, NA25, AG14, NA26 and NA24), n=6 replicates, dosage 10 mg/cm^2) and left for 24 hrs. A positive displacement pipette was used to apply the formulation (˜10 mg/cm^2) to the plunger of a 1 mL syringe. The formulation (10+/−0.5 mg) was applied to the skin surface and spread over the diffusion area using the plunger. Prior to and after the application the weight of the plunger was recorded, from which the dose per cell was calculated.
Following the time period, the excess rapamycin compositions were wiped from the skin surface and the skin layers were separated into stratum corneum, epidermis, and dermis. The Stratum corneum was removed from the human skin using a tape stripping procedure. The epidermis was separated from the dermis by dry heating at 60° C. for 2 min. Rapamycin was extracted from each layer by 90:10 v/v ethanol:water solvent mixture, and quantified. The receiver fluid in the lower compartment was also analyzed for the presence of rapamycin.

[2] = Solubility of rapamycin in solvents and solvent combination

amount of rapamycin found on the surface of the skin ([1]; after 24 hours, relative to skin layers): greatest amount | amount of rapamycin quantified in both the epidermis and dermis over time ([1]; ex vivo human skin): increase | rapamycin detected in the receiver fluid ([1]; ex vivo human skin, any of the time points across the experimental period): not detected | Solubility capacity of each excipient based on concentration in formulation ([2]; IPA at 15.00 wt %): 0.56 wt % | Solubility capacity of each excipient based on concentration in formulation ([2]; IPA at 15.00 wt %, listed as rapamycin): −0.56 wt % | Solubility capacity of each excipient based on concentration in formulation ([2]; PEG 400 at 60.00 wt %): 1.03 wt % | Solubility capacity of each excipient based on concentration in formulation ([2]; diisopropyl adipate (DIA) at 15.00 wt %): 0.26 wt % | Solubility capacity of each excipient based on concentration in formulation ([2]; glycerol at 10.00 wt %): 0.08 wt % | Solubility capacity of the solvent system (expected maximum, simple linear additive effect) ([2]; sum of the excipient capacities): 1.93 wt %
Compound: CO[C@H]1C[C@@H]2CC[C@@H](C)[C@@](O)(O2)C(=O)C(=O)N2CCCC[C@H]2C(=O)O[C@H]([C@H](C)C[C@@H]2CC[C@@H](O)[C@H](OC)C2)CC(=O)[C@H](C)/C=C(\C)[C@@H](O)[C@@H](OC)C(=O)[C@H](C)C[C@H](C)/C=C/C=C/C=C/1C [Rapamycin, rapamycin (sirolimus)]
drug residing in the epidermis versus stratum corneum or dermal layer ([1]; ex vivo human skin): more of the drug residing in the epidermis
